In brackets after ≈: the same amount, converted by molar mass. Activity calls are given as the source filed them. No cut-off for these calls is given here. Non-standard residues stand in square brackets, D forms with d. Residues, ends and D or L forms follow the SMILES beside them. Gly(N(CH2)2(3-indolyl)) = O=C(O)CNCCc1c[nH]c2ccccc12; Nspe = C[C@H](NCC(=O)O)c1ccccc1; Nlys = NCCCCNCC(=O)O
Assays:
[1] = Cytotoxicity against HEK293 cells assessed as reduction in cell survival at 6.3 uM incubated for 24 hrs by WST-8 assay relative to control; format: toxicity, cell-based; settings: human, read-out: Survival
[2] = Cytotoxicity against mouse L929 cells assessed as reduction in cell survival at 6.3 uM incubated for 24 hrs by WST-8 assay relative to control; format: toxicity, cell-based; settings: read-out: Survival
[3] = Cytotoxicity against mouse RAW264.7 cells assessed as cell survival at 5 uM incubated for 24 hrs in presence of nickel by […] relative to control; format: toxicity, cell-based; settings: read-out: Survival
[4] = Cytotoxicity against mouse RAW264.7 cells assessed as cell survival at 5 uM incubated for 24 hrs in presence of copper by […] relative to control; format: toxicity, cell-based; settings: read-out: Survival
[5] = Cytotoxicity against mouse RAW264.7 cells assessed as cell survival at 5 uM incubated for 24 hrs by […] relative to control; format: toxicity, cell-based; settings: read-out: Survival
[6] = Cytotoxicity against mouse RAW264.7 cells assessed as cell viability at 10 uM incubated for 24 hrs by […] relative to control; format: toxicity, cell-based; settings: read-out: Activity
[7] = system: RAW264.7; assay: Cytotoxicity against mouse RAW264.7 cells assessed as cell killing incubated for 24 hrs by MTS assay; format: toxicity, cell-based; settings: raw264.7, 24 h
[8] = system: Staphylococcus aureus; assay: Antibacterial activity against Staphylococcus aureus ATCC 25923 assessed as inhibition of bacterial growth incubated for 24 hrs by broth dilution method; format: functional
[9] = system: Escherichia coli; assay: Induction of lipid peroxidation in Escherichia coli ATCC 25922 assessed as increase in MDA level at 10 uM incubated for 2 hrs by TBARS assay; format: functional, organism-based
[10] = system: Escherichia coli; assay: Induction of lipid peroxidation in Escherichia coli ATCC 25922 assessed as increase in green fluorescence at 12.5 uM incubated for 1 hrs by BODIPY 581/591 C11 dye based confocal microscopic analysis; format: functional, organism-based
[11] = Hemolytic activity in male Sprague-Dawley rat erythrocytes at 100 uM incubated for 1 hr by absorbance based method relative to control; format: toxicity, cell-based, Erythrocyte; settings: read-out: Activity
[12] = system: Escherichia coli; assay: Antibacterial activity against carbapenem-resistant Escherichia coli NMS11035 harboring extended-spectrum beta-lactamase assessed as inhibition of bacterial growth incubated for 24 hrs by broth dilution method; format: functional
[13] = Hemolytic activity in male Sprague-Dawley rat erythrocytes at 50 uM incubated for 1 hr by absorbance based method relative to control; format: toxicity, cell-based, Erythrocyte; settings: read-out: Activity
[14] = Cytotoxicity against mouse RAW264.7 cells assessed as cell viability at 20 uM incubated for 24 hrs by […] relative to control; format: toxicity, cell-based; settings: read-out: Activity
[15] = system: RAW264.7; assay: Antiinflammatory activity in LPS-stimulated mouse RAW264.7 cells assessed as reduction in TNFalpha production at 10 uM incubated for 16 hrs by ELISA relative to control; format: functional; set-up: scale not given: the % may be the effect or the level left
[16] = Hemolytic activity in male Sprague-Dawley rat erythrocytes assessed as concentration required for 50% hemolysis incubated for 1 hr by absorbance based method; format: toxicity, cell-based, Erythrocyte
[17] = Selectivity index, ratio of HC10 for hemolytic activity in male Sprague-Dawley rat erythrocytes to MIC for antibacterial activity against Escherichia coli ATCC 25922; format: toxicity; settings: read-out: Selectivity Index
[18] = system: Escherichia coli; assay: Antibacterial activity against Escherichia coli ATCC 25922 assessed as inhibition of bacterial growth incubated for 24 hrs by broth dilution method; format: functional
[19] = system: RAW264.7; assay: Antiinflammatory activity in LPS-stimulated mouse RAW264.7 cells assessed as reduction in IL-6 production at 10 uM incubated for 16 hrs by ELISA relative to control; format: functional; set-up: scale not given: the % may be the effect or the level left
[20] = system: Cell membrane; assay: Disruption of inner membrane in Escherichia coli ATCC 25922 assessed as increase in absorbance incubated for 1 hr by ONPG assay; format: cell membranes; settings: dose 0-25 µM
[21] = Hemolytic activity in male Sprague-Dawley rat erythrocytes at 25 uM incubated for 1 hr by absorbance based method relative to control; format: toxicity, cell-based, Erythrocyte; settings: read-out: Activity
[22] = system: RAW264.7; assay: Antiinflammatory activity in LPS-stimulated mouse RAW264.7 cells assessed as reduction in nitrite production at 10 uM incubated for 16 hrs by ELISA relative to control; format: functional; set-up: scale not given: the % may be the effect or the level left
[23] = system: HaCaT; assay: Cytotoxicity against human HaCaT cells assessed as cell killing incubated for 24 hrs by MTS assay; format: toxicity, cell-based
[24] = system: Lipopolysaccharide (LPS); assay: Binding affinity to Escherichia coli O111:B4 LPS at 0 to 25 uM BODIPY-TR-cadaverine substitution assay; format: subcellular; settings: dose 0-25 µM
[25] = system: Erythrocyte; assay: Hemolytic activity in male Sprague-Dawley rat erythrocytes assessed as concentration required for 10% hemolysis incubated for 1 hr by absorbance based method; format: toxicity, cell-based
[26] = system: Escherichia coli; assay: Induction of lipid peroxidation in Escherichia coli ATCC 25922 at 12.5 uM incubated for 1 hrs by BODIPY 581/591 C11 dye based flow cytometry analysis; format: functional, organism-based
[27] = system: Acinetobacter baumannii; assay: Antibacterial activity against carbapenem-resistant Acinetobacter baumannii NMS1707 harboring extended-spectrum beta-lactamase assessed as inhibition of bacterial growth incubated for 24 hrs by broth dilution method; format: functional
[28] = system: Escherichia coli; assay: Antibacterial activity against colistin-resistant Escherichia coli NMS12 harboring extended-spectrum beta-lactamase assessed as inhibition of bacterial growth incubated for 24 hrs by broth dilution method; format: functional
[29] = system: HEK293; assay: Cytotoxicity against HEK293 cells assessed as cell killing incubated for 24 hrs by MTS assay; format: toxicity, cell-based; settings: human, hek293, 24 h
[30] = system: Klebsiella pneumoniae; assay: Antibacterial activity against carbapenem-resistant Klebsiella pneumoniae NMS118 harboring extended-spectrum beta-lactamase assessed as inhibition of bacterial growth incubated for 24 hrs by broth dilution method; format: functional
[31] = system: MRC5; assay: Cytotoxicity against human MRC5 cells assessed as cell killing incubated for 24 hrs by MTS assay; format: toxicity, cell-based; settings: mrc5, 24 h
[32] = system: RAW264.7; assay: Antiinflammatory activity in LPS-stimulated mouse RAW264.7 cells assessed as reduction in IL-1beta production at 10 uM incubated for 16 hrs by ELISA relative to control; format: functional; set-up: scale not given: the % may be the effect or the level left
[33] = system: Cell membrane; assay: Disruption of outer membrane in Escherichia coli ATCC 25922 assessed as increase in absorbance measured every 5 mins for 90 mins by nitrocefin assay; format: cell membranes; settings: dose 0-25 µM
[34] = system: DNA; assay: Binding affinity to pUC19 plasmid DNA (unknown origin) assessed as smearing and retardation of DNA bands at 25 uM incubated for 2 hrs by agarose gel imaging method; format: nucleic-acid assay

CC[C@H](C)[C@H](NC(=O)CN)C(=O)NCC(=O)N[C@@H](C)C(=O)N[C@H](C(=O)N[C@@H](CC(C)C)C(=O)N[C@@H](CCCCN)C(=O)N[C@H](C(=O)N[C@@H](CC(C)C)C(=O)N[C@H](C(=O)N[C@H](C(=O)NCC(=O)N[C@@H](CC(C)C)C(=O)N1CCC[C@H]1C(=O)N[C@@H](C)C(=O)N[C@@H](CC(C)C)C(=O)N[C@H](C(=O)N[C@@H](CO)C(=O)N[C@@H](Cc1c[nH]c2ccccc12)C(=O)N[C@H](C(=O)N[C@@H](CCCCN)C(=O)N[C@@H](CCCNC(=N)N)C(=O)N[C@@H](CCCCN)C(=O)N[C@@H](CCCNC(=N)N)C(=O)N[C@@H](CCC(N)=O)C(=O)N[C@@H](CCC(N)=O)C(N)=O)[C@@H](C)CC)[C@@H](C)CC)[C@@H](C)O)[C@@H](C)O)C(C)C)C(C)C [MELITTIN]
viability at 24 h, 6.3 µM [1]: < 21.5%
viability at 24 h, 6.3 µM [2]: < 21.5%
viability at 24 h, 5 µM [3]: < 24.6%
viability at 24 h, 5 µM [4]: < 24.6%
viability at 24 h, 5 µM [5]: < 24.6%

C[C@@H](c1ccccc1)N(CC(=O)N(CCCCN)CC(=O)N(CCc1c[nH]c2ccccc12)CC(=O)N(CCc1c[nH]c2ccccc12)CC(N)=O)C(=O)CN(CCCCN)C(=O)CN(CCCCN)C(=O)CN(C(=O)CN(C(=O)CN(CCCCN)C(=O)CN(C(=O)CN(C(=O)CNCCCCN)[C@@H](C)c1ccccc1)[C@@H](C)c1ccccc1)[C@@H](C)c1ccccc1)[C@@H](C)c1ccccc1 (H-[Nlys][Nspe][Nspe][Nlys][Nspe][Nspe][Nlys][Nlys][Nspe][Nlys][Gly(N(CH2)2(3-indolyl))][Gly(N(CH2)2(3-indolyl))]-NH2)
viability at 24 h, 10 µM [6]: 55.9%
LC50 [7]: 14.9 µM
MIC [8]: 6.3 µM (≈ 11.7 µg/mL)
Activity [9]: Active
Activity [10]: Active
hemolysis at 1 h, 100 µM [11]: 6.7%
MIC [12]: 6.3 µM (≈ 11.7 µg/mL)
hemolysis at 1 h, 50 µM [13]: 7.85%
viability at 24 h, 20 µM [14]: 14.7%
Activity [15]: 54.4%
HC50 at 1 h [16]: > 100 µM
selectivity ratio [17]: > 15.8
MIC [18]: 6.3 µM (≈ 11.7 µg/mL)
Activity [19]: 99%
Activity [20]: Dose-Dependent Effect
hemolysis at 1 h, 25 µM [21]: 2.72%
Activity [22]: 88.7%
LC50 [23]: 18.8 µM
Activity [24]: Active
HC10 [25]: > 100 µM
Activity [26]: Active
MIC [27]: 3.1 µM (≈ 5.78 µg/mL)
MIC [28]: 12.5 µM (≈ 23.3 µg/mL)
LC50 [29]: 16.3 µM
MIC [30]: 12.5 µM (≈ 23.3 µg/mL)
LC50 [31]: 11.8 µM
Activity [32]: 72.9%
Activity [33]: Dose-Dependent Effect
Activity [34]: Active

Source: ChEMBL document CHEMBL5584354, “Impact of Conjugation of the Reactive Oxygen Species (ROS)-Generating Catalytic Moiety with Membrane-Active Antimicrobial Peptoids: Promoting Multitarget Mechanism and Enhancing Selectivity” (J Med Chem, 2024)
